Measurements taken from US20230364070A1, “PYRROLO[3,2-C]PYRIDIN-4-ONE DERIVATIVES USEFUL IN THE TREATMENT OF CANCER” (Scorpion Therapeutics, Inc., priority 2020, published 2023).
pIC50: −log10 of the molar value.

target: T1, pEGFR in CUTO14 cells (Homo sapiens, UniProt P00533, DUP767-769); experiment: Inhibitor activity on EGFR phosphorylation (pEGFR AlphaLISA, 2 h), CUTO14 cells; type: cell-based
T1 construct: endogenous in cells; host or cells: CUTO14 cells
Protocol: CUTO14 cells were obtained from Dr. Robert C. Doebele at the University of Colorado.
Shake 350 rpm for 1 hr in the dark • 3.4 Prepare donor mix under low light conditions prior to use. Dispense 5 μL of donor mix to all the wells. Mix well on the shaker, seal and wrap in aluminum foil and incubate 1.5 hrs at room temperature in the dark • 3.5 Transfer 18.5 μL mixture to OptiPlate 384, and read using an Envision.

T1 sequence (P00533 with tags, fused parts or gaps DUP767-769): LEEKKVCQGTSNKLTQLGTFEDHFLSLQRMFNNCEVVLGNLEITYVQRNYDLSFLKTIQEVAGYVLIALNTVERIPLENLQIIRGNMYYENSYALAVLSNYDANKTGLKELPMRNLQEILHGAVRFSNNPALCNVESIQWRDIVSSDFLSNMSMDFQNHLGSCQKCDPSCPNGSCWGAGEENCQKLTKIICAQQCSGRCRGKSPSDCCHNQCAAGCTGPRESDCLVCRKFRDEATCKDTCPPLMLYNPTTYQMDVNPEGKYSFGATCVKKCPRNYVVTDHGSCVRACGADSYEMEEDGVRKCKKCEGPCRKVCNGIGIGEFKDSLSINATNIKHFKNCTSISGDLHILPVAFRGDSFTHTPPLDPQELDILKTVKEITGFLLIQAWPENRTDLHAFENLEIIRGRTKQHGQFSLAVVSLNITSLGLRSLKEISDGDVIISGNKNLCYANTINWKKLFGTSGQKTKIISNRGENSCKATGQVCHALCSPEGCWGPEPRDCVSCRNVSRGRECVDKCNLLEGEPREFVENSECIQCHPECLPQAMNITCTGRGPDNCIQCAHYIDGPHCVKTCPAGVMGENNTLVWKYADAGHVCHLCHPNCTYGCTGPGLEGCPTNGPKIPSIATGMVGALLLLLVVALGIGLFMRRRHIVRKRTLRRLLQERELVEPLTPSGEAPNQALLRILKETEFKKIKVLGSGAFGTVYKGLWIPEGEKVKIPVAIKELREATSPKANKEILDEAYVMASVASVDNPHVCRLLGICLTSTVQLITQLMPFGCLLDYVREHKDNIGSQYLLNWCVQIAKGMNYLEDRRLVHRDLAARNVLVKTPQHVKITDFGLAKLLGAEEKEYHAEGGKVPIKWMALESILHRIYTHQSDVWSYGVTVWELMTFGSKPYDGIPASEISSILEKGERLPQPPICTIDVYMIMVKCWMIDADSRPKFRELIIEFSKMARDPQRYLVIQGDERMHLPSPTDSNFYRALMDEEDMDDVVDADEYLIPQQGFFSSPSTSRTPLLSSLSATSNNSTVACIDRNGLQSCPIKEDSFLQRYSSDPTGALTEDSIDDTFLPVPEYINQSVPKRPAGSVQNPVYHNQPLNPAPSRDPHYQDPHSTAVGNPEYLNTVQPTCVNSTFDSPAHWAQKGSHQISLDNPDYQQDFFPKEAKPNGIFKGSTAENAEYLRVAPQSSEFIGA

pIC50, > 7.00:
C=CC(=O)N(C)C(C)(C)C#Cc1cnccc1-c1[nH]c2c(c1Nc1cccc(F)c1OC)C(=O)NCC2 [compound 259, N-[4-(4-{3-[(3-fluoro-2-methoxyphenyl)amino]-4-oxo-1H,5H,6H,7H-pyrrolo[3,2-c]pyridin-2-yl}pyridin-3-yl)-2-methylbut-3-yn-2-yl]-N-methylprop-2-enamide]
C=CC(=O)N[C@@H](C)C#Cc1cnccc1-c1[nH]c2c(c1Nc1cccc(Cl)c1OC)C(=O)NCC2 [compound 376, N-[(2S)-4-(4-{3-[(3-chloro-2-methoxyphenyl)amino]-4-oxo-1H,5H,6H,7H-pyrrolo[3,2-c]pyridin-2-yl}pyridin-3-yl)but-3-yn-2-yl]prop-2-enamide]
C=CC(=O)NC1(C#Cc2cnccc2-c2[nH]c3c(c2Nc2cccc(F)c2OC)C(=O)NCC3)CC1 [compound 206, N-{1-[2-(4-{3-[(3-fluoro-2-methoxyphenyl)amino]-4-oxo-1H,5H,6H,7H-pyrrolo[3,2-c]pyridin-2-yl}pyridin-3-yl)ethynyl]cyclopropyl}prop-2-enamide]
C=CC(=O)NC1(C#Cc2cnccc2-c2[nH]c3c(c2Nc2cccc(F)c2OC)C(=O)NCC3)COC1 [compound 263]
CC#CC(=O)N1CC[C@@H]1COc1cnccc1-c1[nH]c2c(c1Nc1cccc(F)c1OC)C(=O)NCC2 [compound 289, 2-(3-{[(2R)-1-(but-2-ynoyl)azetidin-2-yl]methoxy}pyridin-4-yl)-3-[(3-fluoro-2-methoxyphenyl)amino]-1H,5H,6H,7H-pyrrolo[3,2-c]pyridin-4-one]
COc1c(F)cccc1Nc1c(-c2ccncc2C#C[C@@]2(C)CCCN2C(=O)/C=C/CN(C)C)[nH]c2c1C(=O)NCC2 [compound 335, 2-(3-{2-[(2R)-1-[(2E)-4-(dimethylamino)but-2-enoyl]-2-methylpyrrolidin-2-yl]ethynyl}pyridin-4-yl)-3-[(3-fluoro-2-methoxyphenyl)amino]-1H,5H,6H,7H-pyrrolo[3,2-c]pyridin-4-one]
COc1c(F)cccc1Nc1c(-c2ccncc2C#C[C@H]2CC(C)(C)CN2C(=O)/C=C/CN(C)C)[nH]c2c1C(=O)NCC2 [compound 344, 2-(3-{2-[(2R)-1-[(2E)-4-(dimethylamino)but-2-enoyl]-4,4-dimethylpyrrolidin-2-yl]ethynyl}pyridin-4-yl)-3-[(3-fluoro-2-methoxyphenyl)amino]-1H,5H,6H,7H-pyrrolo[3,2-c]pyridin-4-one]
C=CC(=O)N1CC(C)(C)C[C@@H]1C#Cc1cnccc1-c1[nH]c2c(c1Nc1cccc(F)c1OC)C(=O)NCC2 [compound 253, 2-(3-{2-[(2R)-4,4-dimethyl-1-(prop-2-enoyl)pyrrolidin-2-yl]ethynyl}pyridin-4-yl)-3-[(3-fluoro-2-methoxyphenyl)amino]-1H,5H,6H,7H-pyrrolo[3,2-c]pyridin-4-one]
C=CC(=O)N1C(C)CC1COc1cnccc1-c1[nH]c2c(c1Nc1cccc(F)c1OC)C(=O)NCC2 (stereo not drawn) [compound 333]
CC#CC(=O)N1CCC[C@]1(C)C#Cc1cnccc1-c1[nH]c2c(c1Nc1cccc(F)c1OC)C(=O)NCC2 [compound 291, 2-(3-{2-[(2R)-1-(but-2-ynoyl)-2-methylpyrrolidin-2-yl]ethynyl}pyridin-4-yl)-3-[(3-fluoro-2-methoxyphenyl)amino]-1H,5H,6H,7H-pyrrolo[3,2-c]pyridin-4-one]
C=CC(=O)NC1(C#Cc2cnccc2-c2[nH]c3c(c2Nc2cccc(Cl)c2OC)C(=O)NCC3)CCOC1 (single isomer, unassigned) [compound 322]
C=CC(=O)N[C@@H](C)C#Cc1cnccc1-c1[nH]c2c(c1Nc1cccc(F)c1OC)C(=O)NCC2 [compound 375, N-[(2S)-4-(4-{3-[(3-fluoro-2-methoxyphenyl)amino]-4-oxo-1H,5H,6H,7H-pyrrolo[3,2-c]pyridin-2-yl}pyridin-3-yl)but-3-yn-2-yl]prop-2-enamide]
